MST, Dose and IC50 data for eleven molecules are collected here from ChEMBL document CHEMBL1128879, “Design, synthesis, and structure-activity relationships of 2-substituted-2-amino-1,3-propanediols: Discovery of a novel immunosuppressant, FTY720” (Bioorg Med Chem Lett, 1995).

Each structure is given as a SMILES string.

Data set [1] deals with Rattus norvegicus. As to the kind of experiment: Compound was evaluated in vivo for the immunosuppressive activity following intravenous (iv) administration at a dose of 10 mg/Kg. Format: functional.
For data set [2], the system named is Rattus norvegicus. As to the kind of experiment: Compound was evaluated in vivo for the immunosuppressive activity following intraperitoneal (ip) administration at a dose of 0.3 mg/Kg. Format: functional.
The test system of data set [3] is Rattus norvegicus. The data set can be described thus: Compound was evaluated in vivo for the immunosuppressive activity following intraperitoneal (ip) administration at a dose of 3 mg/kg. Format: functional.
The test system of data set [4] is Rattus norvegicus. As to the kind of experiment: Compound was evaluated in vivo in rat skin allograft by intravenous (iv) administration; not toxic. In kind it is functional.
The subject of data set [5] is Rattus norvegicus. As to the kind of experiment: Compound was evaluated in vivo for the immunosuppressive activity following peroral (po) administration at a dose of 30 mg/Kg. Format: functional.
Data set [6] deals with Rattus norvegicus. The data set can be described thus: Compound was evaluated in vivo for the immunosuppressive activity following intraperitoneal (ip) administration at a dose of 0.1 mg/Kg. In kind it is functional.
The subject of data set [7] is Rattus norvegicus. As to the kind of experiment: Compound was evaluated in vivo for the immunosuppressive activity following peroral (po) administration at a dose of 3 mg/Kg. In kind it is functional.
Data set [8] relates to Rattus norvegicus. The data set can be described thus: Compound was evaluated in vivo for the immunosuppressive activity following intravenous (iv) administration at a dose of 0.1 mg/kg. In kind it is functional.
For data set [9], the system named is Rattus norvegicus. As to the kind of experiment: Compound was evaluated in vivo for the immunosuppressive activity following intravenous (iv) administration at a dose of 3 mg/Kg. Format: functional.
In data set [10] the test system is Rattus norvegicus. As to the kind of experiment: Compound was evaluated in vivo for the immunosuppressive activity following peroral (po) administration at a dose of 0.1 mg/Kg. Format: functional.
The subject of data set [11] is Rattus norvegicus. As to the kind of experiment: Compound was evaluated in vivo for the immunosuppressive activity following intraperitoneal (ip) administration at a dose of 1 mg/Kg. Format: functional.
The species named for the next data set is Mus musculus. The data set can be described thus: In vitro ability to inhibit mouse allogenic mixed leukocyte response (MLR). In kind it is functional.
Data set [12] has as its system Rattus norvegicus. As to the kind of experiment: Compound was evaluated in vivo for the immunosuppressive activity following intraperitoneal (ip) administration at a dose of 3 mg/Kg. In kind it is functional.
Data set [13] relates to Rattus norvegicus. The data set can be described thus: (§1) Compound was evaluated in vivo in rat skin allograft by intravenous (iv) administration; toxic. In kind it is functional.
The subject of data set [14] is Rattus norvegicus. Described as §1. Format: organism-based.

On to `CCCCCCCCc1ccc(CCC(N)(CO)CO)cc1` [FINGOLIMOD], for which the MST was found to be 53.5 days with Rattus norvegicus [1]; 36 days with Rattus norvegicus [2]; 60 days with Rattus norvegicus [3]; 57.8 days with Rattus norvegicus [5]; 32 days in the data set with Rattus norvegicus [6]; 41 days with Rattus norvegicus [7]. For the same molecule, the MST with Rattus norvegicus [8] is 24.8 days; with Rattus norvegicus [9], 46.3 days; in the data set with Rattus norvegicus [10] it was 19.3 days; with Rattus norvegicus [11], 45 days. The same molecule showed a Dose in the data set with Rattus norvegicus [4] of 10 mg/kg.
Turning to `CCCCCCCCCc1ccc(CCC(N)(CO)CO)cc1`, the half-inhibitory concentration (IC50) in the data set listed under Mus musculus is 8.5 nM.
Molecule `CCCCCCCCCc1ccc(CC(N)(CO)CO)cc1` yielded a concentration for half-maximal inhibition (IC50) in the data set filed under Mus musculus of 70 nM.
In the data set listed under Mus musculus, `CCCCCCCCCCc1ccc(C(N)(CO)CO)cc1` registered a half-inhibitory concentration (IC50) of 13 nM. Against the preceding molecule, the IC50 is about 5.4-fold lower.
Consider `CCc1ccc(CCCCCCCCC(N)(CO)CO)cc1`, for which 32 nM corresponded to half-maximal inhibition in the data set filed under Mus musculus (IC50). This IC50 is about 2.5-fold higher than that of the molecule before.
As for `CCCCCCCCCCCCCCC(N)(CO)CO`, the MST in the data set on Rattus norvegicus [2] came out at 28 days; in the data set on Rattus norvegicus [12], 45 days; with Rattus norvegicus [6], 12 days; in the data set on Rattus norvegicus [11] it was 40 days. Besides, in the data set on Rattus norvegicus [13], the Dose is 10 mg/kg.
In the data set on Rattus norvegicus [14], `CCCCCCCCCCCCCCCC(N)(CO)CO` returned a Dose of 3 mg/kg.
For the molecule `CCCCCCc1ccc(CCCCC(N)(CO)CO)cc1`, the IC50 in the data set filed under Mus musculus worked out at 19 nM.
Take `CCCCCCCc1ccc(CCCC(N)(CO)CO)cc1`: the concentration for half-maximal inhibition (IC50) in the data set filed under Mus musculus was 350 nM.
On to `CCCCc1ccc(CCCCCCC(N)(CO)CO)cc1`, for which half-maximal inhibition in the data set listed under Mus musculus (IC50) required 100 nM.
As for `NC(CO)(CO)CCCCCCCCCCc1ccccc1`, in the data set filed under Mus musculus, the IC50 amounted to 54 nM.
